Where a SMILES comes first, the peptide text is derived from it. Bridges are numbered along the chain shown (N, C = ends).
Key:
Format in all cases: cell-based
hKv1.1 = molecular target: T1, hKv1.1 (Homo sapiens, UniProt Q09470); assay: Whole-cell patch-clamp of Kv1.1 currents in transiently transfected CHO cells
T1 construct: host or cells: CHO cells, transient transfection (Lipofectamine 2000)
Procedure: (§1) Macroscopic Kv1.1 and Kv1.2 currents were measured in transiently transfected CHO cells. For Kv1.3 current recording, human T lymphocytes were activated by Phytohemagglutinin A (PHA) to increase Kv1.3 channel expression, and micro-pipettes were filled with Ca^2+-free solution to prevent KCa3.1 channel activation. K^+ currents were evoked by applying 15-ms-long depolarization pulses to +50 mV from a holding potential of −120 mV except for Kv1.2, as it has highly variable activation kinetics; therefore, 15–500 ms-long pulses were applied to maximize the open probability of Kv1.2 channel. CboK peptide toxins were dissolved in a freshly prepared extracellular solution and applied to the whole-cell patch-clamped cells using a micro perfusion system at 200 μL/min flow rate.
(§2) CHO cells were transiently transfected by using Lipofectamine 2000 kit (Invitrogen, Carlsbad, CA, USA), as per the manufacturer’s protocol with vector pCMV6-AC-GFP (cat# RG211000 and RC222200; OriGene Technologies, Rockville, MD, USA) encoding hKv1.1 (hKCNA1 gene) or hKv1.2 (hKCNA2 gene) ion channels. Cells were grown under standard conditions in an incubator at 37 °C and 5% CO2 for 24 h. GFP-positive transfected cells were identified by utilizing a Nikon TMS fluorescence microscope (Nikon, Tokyo, Japan) using bandpass filters of 455–495 nm and 515–555 nm for excitation and emission, respectively.
(§3) The patch-clamp technique was used for measuring whole-cell currents in voltage-clamped mode using standard protocols. Electrophysiological recordings were acquired by using Multiclamp 700B amplifier connected to a personnel computer with an Axon Digidata1440 digitizer (Molecular Devices, Sunnyvale, CA, USA). Pipettes were pulled from GC150F-15 borosilicate capillaries (Harvard Apparatus, Kent, UK) having 3−5 MΩ tip resistance in the bath solution. All current recordings were carried out at room temperature (20−25 °C) and only those currents were recorded and subjected to analyses when the leak current at holding potential was <5% of peak current at the test potential. Current traces were lowpass-filtered by utilizing the built-in analog four-pole Bessel filters of the amplifiers and were sampled at 20 kHz which is at least twice the filter cut-off frequency. A gravity-driven perfusion system was used to perfuse the cells with control and test solutions and excess fluid was removed continuously through vacuum suction. The extracellular solution (bath solution) contained 145 mM NaCl, 5.5 mM glucose, 5 mM KCl, 2.5 mM CaCl2, 1 mM MgCl2, and 10 mM HEPES, having pH of 7.35 and an osmolarity between 302 and 308 mOsM/L. Toxins were dissolved in bath solution at different molar concentrations and supplemented with 0.1 mg/mL of bovine serum albumin BSA (Sigma-Aldrich, Budapest, Hungary). The intracellular solution (pipette filling) was comprised of 140 mM KF, 2 mM MgCl2, 1 mM CaCl2, 10 mM HEPES, and 11 mM EGTA, with a pH of 7.22 and an osmolarity of ~295 mOsM/L.
(§4) Generally, to evoke the Kv1.xcurrents, 15-ms-long depolarization pulses to +50 mV from a holding potential of −120 mV were applied, and the current traces were recorded after every 15 s. However, in the case of Kv1.2, due to its variable activation kinetics, the duration of the depolarization pulse was set between 15 and 500 ms to attain the saturated peak current.

hKv1.2 = molecular target: T2, hKv1.2 (Homo sapiens, UniProt P16389); assay: Whole-cell patch-clamp of Kv1.2 currents in transiently transfected CHO cells; conditions: Hill fit of RCF vs toxin concentration, n ≥ 3
T2 construct: GFP (C); host or cells: CHO cells, transient transfection (Lipofectamine 2000)
Procedure: as §1, §2, §3, §4

Kv1.3 [1] = molecular target: T3, Kv1.3 (Homo sapiens, UniProt P22001); assay: Whole-cell patch-clamp of Kv1.3 currents in PHA-activated human T lymphocytes
T3 construct: endogenous in cells
Procedure: as §1
Isochronal RCF data points obtained this way (isochronal RCF = I4ms/I4ms,0 where I4ms,0 and I4ms are the currents at 4 ms time point in the absence and presence of CboK peptides, respectively) at different toxin concentrations were fitted with the Hill equation to obtain concentration–response curves as shown in Figure 6H.
Human peripheral venous blood was acquired from anonymous healthy volunteers from the blood bank. Blood samples were collected by having approval from the Ethical Committee of the Hungarian Medical Research Council (36255-6/2017/EKU). PBMCs were separated by Histopaque 1077 (Sigma-Aldrich, Budapest, Hungary) separation technique, and isolated cells, at the density of 5 × 10^5 cells, were cultured in RPMI 1640 media (Gibco, Grand Island, NY, USA) supplemented with 10% FBS (Sigma-Aldrich, Budapest, Hungary), 2 mM L-glutamine, […], and […] penicillin in a humidified incubator at 37 °C and 5% CO2 for 3–6 days. A measure of 2, 5, or 10 μg/mL of Phytohemagglutinin A (PHA) (Sigma-Aldrich, Budapest, Hungary) was added in cultured cells to activate the PBMCs and upregulate the Kv1.3 expression.
as §3, with “suction.” for “suction. The extracellular solution (bath solution) contained 145 mM NaCl, 5.5 mM glucose, 5 mM KCl, 2.5 mM CaCl2, 1 mM MgCl2, and 10 mM HEPES, having pH of 7.35 and an osmolarity between 302 and 308 mOsM/L. Toxins were dissolved in bath solution at different molar concentrations and supplemented with 0.1 mg/mL of bovine serum albumin BSA (Sigma-Aldrich, Budapest, Hungary). The intracellular solution (pipette filling) was comprised of 140 mM KF, 2 mM MgCl2, 1 mM CaCl2, 10 mM HEPES, and 11 mM EGTA, with a pH of 7.22 and an osmolarity of ~295 mOsM/L.”

Kv1.3 [2] = molecular target: T3, Kv1.3; assay: as above; conditions: 1 µM toxin, end of 15-ms pulse to 0 mV (Figure 6E)

T3 sequence (P22001 whole entry): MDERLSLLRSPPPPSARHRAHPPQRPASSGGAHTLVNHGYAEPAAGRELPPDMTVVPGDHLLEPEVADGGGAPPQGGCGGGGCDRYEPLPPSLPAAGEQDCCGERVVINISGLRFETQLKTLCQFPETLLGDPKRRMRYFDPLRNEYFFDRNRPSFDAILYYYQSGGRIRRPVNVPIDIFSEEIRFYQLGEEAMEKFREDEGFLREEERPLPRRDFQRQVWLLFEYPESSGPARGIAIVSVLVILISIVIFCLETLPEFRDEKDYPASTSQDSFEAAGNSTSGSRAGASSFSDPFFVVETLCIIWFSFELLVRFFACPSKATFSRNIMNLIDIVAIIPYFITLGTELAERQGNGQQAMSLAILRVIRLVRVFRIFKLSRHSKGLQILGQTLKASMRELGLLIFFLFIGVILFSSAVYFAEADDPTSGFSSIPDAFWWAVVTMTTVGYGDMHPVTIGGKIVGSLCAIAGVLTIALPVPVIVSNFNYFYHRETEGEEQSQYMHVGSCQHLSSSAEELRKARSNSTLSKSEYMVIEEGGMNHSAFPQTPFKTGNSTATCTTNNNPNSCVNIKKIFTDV
T2 sequence (P16389 whole entry): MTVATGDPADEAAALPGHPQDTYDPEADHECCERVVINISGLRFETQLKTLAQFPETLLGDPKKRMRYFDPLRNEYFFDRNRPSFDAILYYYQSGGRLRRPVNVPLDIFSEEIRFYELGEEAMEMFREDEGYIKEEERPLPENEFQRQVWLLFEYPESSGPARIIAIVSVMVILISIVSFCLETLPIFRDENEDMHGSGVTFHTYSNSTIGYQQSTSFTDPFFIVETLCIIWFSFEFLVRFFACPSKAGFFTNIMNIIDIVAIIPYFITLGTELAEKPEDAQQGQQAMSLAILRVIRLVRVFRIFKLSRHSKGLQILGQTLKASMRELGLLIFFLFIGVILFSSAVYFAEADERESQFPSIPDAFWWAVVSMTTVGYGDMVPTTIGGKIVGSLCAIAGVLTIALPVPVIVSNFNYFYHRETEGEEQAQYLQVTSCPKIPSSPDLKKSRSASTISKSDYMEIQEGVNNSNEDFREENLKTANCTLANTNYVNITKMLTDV
T1 sequence (Q09470 whole entry): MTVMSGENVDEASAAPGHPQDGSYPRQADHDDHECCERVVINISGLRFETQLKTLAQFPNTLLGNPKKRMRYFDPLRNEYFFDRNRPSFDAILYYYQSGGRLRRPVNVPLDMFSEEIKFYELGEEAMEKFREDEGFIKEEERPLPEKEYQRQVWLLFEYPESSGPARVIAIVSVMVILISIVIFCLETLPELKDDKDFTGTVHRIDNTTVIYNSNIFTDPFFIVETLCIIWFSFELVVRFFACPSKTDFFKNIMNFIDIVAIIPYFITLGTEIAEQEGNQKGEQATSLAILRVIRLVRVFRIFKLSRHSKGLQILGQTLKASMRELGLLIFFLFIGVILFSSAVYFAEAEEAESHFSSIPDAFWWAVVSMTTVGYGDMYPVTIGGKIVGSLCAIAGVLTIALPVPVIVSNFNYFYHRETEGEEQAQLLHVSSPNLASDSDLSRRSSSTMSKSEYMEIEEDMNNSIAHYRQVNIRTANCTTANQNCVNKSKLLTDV

CC[C@H](C)[C@@H]1NC(=O)[C@@H]2CSSC[C@H](NC(=O)[C@@H](NC(=O)[C@@H](N)[C@@H](C)O)C(C)C)C(=O)N[C@@H](C(C)C)C(=O)N[C@@H](Cc3ccc(O)cc3)C(=O)N[C@@H](CCCNC(=N)N)C(=O)N[C@@H]([C@@H](C)O)C(=O)N[C@H]3CSSC[C@H](NC(=O)[C@H](C)NC(=O)[C@H](CC(N)=O)NC(=O)[C@H](CC(N)=O)NC1=O)C(=O)N[C@@H](CCCCN)C(=O)N[C@H](C(=O)N[C@@H](Cc1ccc(O)cc1)C(=O)N1CCC[C@H]1C(=O)N[C@@H](Cc1ccc(O)cc1)C(=O)O)CSSC[C@H](NC(=O)[C@H](CC(=O)O)NC(=O)[C@H](CCCCN)NC(=O)[C@H](CC(=O)O)NC3=O)C(=O)N[C@@H](CCCCN)C(=O)N[C@@H](CCCNC(=N)N)C(=O)N[C@@H](CCCNC(=N)N)C(=O)NCC(=O)N[C@@H](Cc1ccc(O)cc1)C(=O)N[C@@H](CCCNC(=N)N)C(=O)N[C@@H](CO)C(=O)NCC(=O)N[C@@H](CCCCN)C(=O)N2 [CboK2] (H-TVCVYRTCDKDCKRRGYRSGKCINNACKCYPY-OH; disulfide 3-22, 8-27, 12-29) was tested, and the “effect on Kv1.1 currents” value (hKv1.1; 100 nM toxin) was “did not block”, the Kd (hKv1.1; this study, screened at 100 nM, read-out: Kd Values Kv1.1 (symbol)) was greater than 100 nM and the Kd (hKv1.2; cumulative application, equilibrium block, pulses to +50 mV from -120 mV, read-out: Kd for Kv1.2) was 0.763 nM. For the same compound, the “Hill coefficient H, Kv1.2 block” value (hKv1.2) was 1.5, the “remaining current fraction (RCF) of Kv1.3 at +50 mV” value (Kv1.3 [1]; 1 µM toxin, end of 15-ms pulse to +50 mV (Figure 6C)) was ~ 0.34 and the “Hill coefficient H, Kv1.3 block” value (Kv1.3 [1]; Hill fit of isochronal RCF (4 ms), n ≥ 3) was 0.8. For the same compound, the Kd (Kv1.3 [1]; Hill fit of isochronal RCF (current at 4 ms), 15-ms pulses to +50 mV from -120 mV, n ≥ 3, read-out: Kd for Kv1.3) was 171 nM and the “remaining current fraction (RCF) of Kv1.3 at 0 mV” value (Kv1.3 [2]) was ~ 0.23.

Source: publication PMC10467108, “Of Seven New K^+ Channel Inhibitor Peptides of Centruroides bonito, α-KTx 2.24 Has a Picomolar Affinity for Kv1.2” (Toxins, 2023)
